Experimental data taken from patent US20100261753A1, “METHODS FOR PREVENTING AND/OR TREATING DEGENERATIVE DISORDERS OF THE CENTRAL NERVOUS SYSTEM” (AMICUS THERAPEUTICS, INC., priority 2009, published 2010).
Values joined by “and” are separate entries in the source; they are usually repeats but may differ in a detail not shown here. Identical values can stand only once. Counter-ions that a name gives are not always drawn. Like-named read-outs stand apart in the source and are kept apart here.

Legend:
[1] = molecular target: T1, recombinant human GCase (rhGCase; Cerezyme) (Homo sapiens, UniProt P04062, R534H); experiment: In vitro enzyme inhibition assay of rhGCase with 4-MU-β-D-Glc substrate; assay type: biochemical; conditions: for Ki: from IC50 by Cheng-Prusoff equation
T1 construct: purchased Genzyme Corp
T1 sequence (P04062 40-536 R534H): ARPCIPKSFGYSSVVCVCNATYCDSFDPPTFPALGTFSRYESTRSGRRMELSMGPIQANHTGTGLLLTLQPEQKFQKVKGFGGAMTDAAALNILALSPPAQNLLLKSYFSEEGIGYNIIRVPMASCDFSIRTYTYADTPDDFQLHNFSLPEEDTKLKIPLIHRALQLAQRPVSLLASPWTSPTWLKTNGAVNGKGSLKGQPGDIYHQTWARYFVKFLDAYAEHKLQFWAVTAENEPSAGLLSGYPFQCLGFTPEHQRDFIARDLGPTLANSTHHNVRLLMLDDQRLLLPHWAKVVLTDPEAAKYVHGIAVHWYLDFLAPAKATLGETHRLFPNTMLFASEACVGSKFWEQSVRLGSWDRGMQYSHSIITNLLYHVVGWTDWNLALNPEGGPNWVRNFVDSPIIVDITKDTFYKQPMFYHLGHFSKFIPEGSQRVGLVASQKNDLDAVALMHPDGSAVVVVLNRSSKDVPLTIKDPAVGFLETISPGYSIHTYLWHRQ
Description: The binding affinity (defined here by Ki binding constant) of GCase for small molecule pharmacological chaperones described in this document were empirically determined using enzyme inhibition assays. In brief, the enzyme inhibition assays used monitored the ability of test compound to bind and prevent the hydrolysis of a fluorogenic substrate in a concentration-dependent manner. Specifically, the enzyme activity of recombinant human GCase (rhGCase; Cerezyme®, Genzyme Corp.) was measured using the 4-methylumbelliferyl-β-D-glucopyranoside (4-MU-β-D-Glc) fluorogenic substrate in the absence or in the presence of varying amounts of each test compound. […] The enzyme inhibition assays were performed at both pH 7.0 (endoplasmic reticulum pH) and at pH 5.2 (lysosomal pH) to gain insight into the binding affinity (i.e., potency) of compounds for GCase in the endoplasmic reticulum and lysososome.
Enzyme (Cerezyme®, a recombinant form of the human enzyme β-glucocerebrosidase) was also diluted in the same buffer “M” at pH 7.0 and pH 5.2. […] Five μl of diluted enzyme was added to 15 μl of the various inhibitor concentrations or buffer “M” alone and incubated at 37° C. for 1 hour with 50 μl of the substrate preparation to assess β-glucosidase activity at pH 7.0 and pH 5.2.

GCase = molecular target: T2, GCase (Mus musculus, UniProt P17439); experiment: GCase enhancement in tissues of mice after 2-week oral dosing; assay type: in vivo, mice (C57BL/6); conditions: for GCase enhancement in brain, spleen, liver and lung: compared to mice administered control or IFG-tartrate; for GCase Increase (-fold): nine doses over 2 weeks
T2 construct: Liver, spleen, lung, and brain tissues were removed; from tissue; host or cells: brain, spleen, liver and lung of wild-type C57BL/6 mice
T2 sequence (P17439 20-515): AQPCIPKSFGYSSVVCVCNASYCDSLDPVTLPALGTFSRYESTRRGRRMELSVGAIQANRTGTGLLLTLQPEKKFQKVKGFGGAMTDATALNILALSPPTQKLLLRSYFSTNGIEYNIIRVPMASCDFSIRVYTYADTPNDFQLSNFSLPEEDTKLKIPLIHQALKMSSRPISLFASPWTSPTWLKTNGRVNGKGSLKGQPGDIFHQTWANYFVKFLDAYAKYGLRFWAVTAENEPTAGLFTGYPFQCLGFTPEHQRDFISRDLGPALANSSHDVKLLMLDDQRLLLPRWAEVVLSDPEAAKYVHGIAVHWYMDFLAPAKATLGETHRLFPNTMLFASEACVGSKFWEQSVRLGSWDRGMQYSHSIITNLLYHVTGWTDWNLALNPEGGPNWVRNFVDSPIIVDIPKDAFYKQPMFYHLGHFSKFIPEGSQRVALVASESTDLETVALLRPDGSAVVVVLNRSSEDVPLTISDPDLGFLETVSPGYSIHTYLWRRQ
Description: The ability of orally administered test compounds (the hydrochloride salt form of Compound A and Compound B) to elevate GCase levels as compared to reference compound, IFG-tartrate, was assessed in mice. […] Seven animals were used per dose. The dosing solutions were prepared in water. Compounds were administered over 2 weeks as follows: week 1, Mon-Fri (On), Sat-Sun (Off); week 2, Mon-Thu (On); necropsy on Friday. Thus, a total of 9 doses (dosing solutions prepared fresh every day) were given to each mouse, with a 24-hour washout between the last dose and necropsy.
Plasma was collected by spinning blood at 2700 g for 10 minutes at 4° C. Liver, spleen, lung, and brain tissues were removed, washed in cold PBS, blotted dry, flash frozen on dry ice, and stored at −80° C. until analysis. GCase levels were measured by homogenizing approximately 50 mg tissue in 500 μl McIlvane (MI) buffer (100 mM sodium citrate, 200 mM sodium phosphate dibasic, 0.25% sodium taurocholate, and 0.1% Triton X-100, pH 5.2) at pH 5.2 for 3-5 seconds on ice with a micro homogenizer. Homogenates were then incubated at room temperature without and with 2.5 mM conduritol-B-epoxide (CBE) for 30 min. Finally, 3.7 mM 4-methylumbeliferryl-β-glucoside (4-MUG) substrate was added and incubated at 37° C. for 60 min. Reactions were stopped by addition of 0.4 M glycine, pH 10.6. Fluorescence was measured on a plate reader for 1 sec/well using 355 nm excitation and 460 nm emission. Total protein was determined in lysates using the MicroBCA kit according to the manufacturer's instructions. A 4-methylumbelliferone (4-MU) standard curve ranging from 1.0 nM to 50 μM was run in parallel for conversion of raw fluorescence data to absolute GCase activity (in the presence and absence of CBE) and expressed as nanomoles of 4-MU released per milligram of protein per hour (nmol/mg protein/hr). GCase levels and protein levels were calculated using Microsoft Excel (Redmond, Wash.) and GraphPad Prism version 4.02.

[2] = pH 7 (endoplasmic reticulum pH), read-out: IC50 pH 7

| SMILES | IC50 ([1]; pH 5.2, average of three independent experiments, Table 3A, read-out: IC50 pH 5.2) | IC50 ([1]; pH 5.2, average of three independent experiments, Table 3B, read-out: IC50 pH 5.2) | GCase enhancement in brain, spleen, liver and lung (GCase) | Ki ([1]; pH 5.2, read-out: Ki pH 5.2) | IC50 [1, 2] | Ki ([1]; pH 7, read-out: Ki pH 7) | GCase Increase (-fold) (GCase; brain, 10 mg/kg p.o., Table 4A) | GCase Increase (-fold) (GCase; brain, 100 mg/kg p.o., Table 4A) | GCase Increase (-fold) (GCase; spleen, 10 mg/kg p.o., Table 4B) | GCase Increase (-fold) (GCase; spleen, 100 mg/kg p.o., Table 4B) | IC50 ([1]; pH 5.2, average of three independent experiments, Table 4A, read-out: IC50 pH 5.2) | IC50 ([1]; pH 5.2, average of three independent experiments, Table 4B, read-out: IC50 pH 5.2) |
| --- | --- | --- | --- | --- | --- | --- | --- | --- | --- | --- | --- | --- |
| O[C@@H]1CNCC(CF)[C@H]1O (stereo in doubt) [Compound A, (3R,4R,5R)-5-(fluoromethyl)piperidine-3,4-diol] | 10 ± 1 nM | 10 ± 1 nM |  |  |  |  |  |  |  |  |  |  |
| O[C@@H]1CNCC(CF)[C@H]1O (stereo in doubt) [Compound A-HCl, (3R,4R,5R)-5-(fluoromethyl)piperidine-3,4-diol hydrochloride] |  |  | statistically significant greater GCase enhancement | 6 nM | 6 nM and 7 nM | 3 nM and 4 nM |  |  |  |  |  |  |
| O[C@@H]1[C@@H](CCl)CNC[C@H]1O [Compound B, (3R,4R,5S)-5-(chloromethyl)piperidine-3,4-diol] |  |  | statistically significant greater GCase enhancement | 384 ± 2.1 nM | 9.8 ± 0.5 nM | 5.1 ± 0.3 nM | 1.3 -fold | 3.5 -fold | 1.4 -fold | 2.2 -fold | 73 ± 9 nM | 73 ± 9 nM |
